Measured values: US20250052769A1, “MIMOTOPES OF ARA H 2 AND USES OF THE SAME TO DIAGNOSE PEANUT ALLERGIES” (The Regents of the University of Colorado, A Body Corporate, priority 2023, published 2025)
“Also recorded” adds a separate entry of the source. One block for each substance: values may come before it. Non-standard residues stand in square brackets, D forms with d. No end group written: not given here. Hyp = O=C(O)[C@@H]1C[C@@H](O)CN1

Tests used:
Ara h 2-specific IgE [1] = assay: Biotin/streptavidin ELISA of serum IgE binding to peptides; set-up: species or system human; details: for IgE binding by ELISA, Biotide peptides: serum pool at 10 IU/ml Ara h 2-sIgE, 20-30% pure Biotide peptides at 1 nM, Bt-anti-HuIgE 1:3,000 (FIG. 5A, 6A); for IgE binding by ELISA, purified peptides: serum pool at 10 IU/ml, 95-97% pure peptides at 5 nM, Bt-anti-HuIgE 1:500 (FIG. 5B, 6B)
From the text: (§1) To produce the serum pool, 10 individual sera were pooled with the concentration of Ara h 2-sIgE normalized so that no one serum was predominant (Table 2). Seven sera were studied in detail, 3 of these were included in the serum pool and 4 independent of the serum pool (Table 2). The Colorado Multiple Institutional Review Board (COMIRB) approved this study. All adult patients and the parents or guardians of minors gave written informed consent. Minors who were >6 years of age, signed an assent.
(§2) Peptides for ELISAs were synthesized with an N-terminal linker arm (Ttds; JPT Peptides, Berlin) followed by biotin at the N terminus. Prior to generating microarrays with high fidelity sequences, we performed screening assays using the Biotide approach (JPT Peptides, Berlin) in which multiple related peptides are synthesized in a cost-effective manner at approximately 20% purity. For validation, selected peptides were also synthesized by standard methods and purified (95-97% pure) by HPLC (JPT Laboratories, Berlin). For all peptides of epitope 3 and the related mimotope studied here, trans-4-hydroxyproline (h) was substituted for second proline in the DPY_P motif as this substitution may enhance binding of IgE. Peptides for microarray assays were synthesized with the Ttds linker arm on the N terminus and printed onto microscope slides treated with a proprietary 3-dimensional surface by JPT Peptides (Berlin).
Streptavidin (InVitrogen) (5 μg/ml) was bound to micro titer plates by overnight incubation in PBS, the plates were washed once with PBST (0.05% Tween 20) and 50 μL of peptides were added at a final concentration of 1-5 nM in PBST for 1 hour at room temperature. Unoccupied streptavidin sites were then saturated with 400 μM biotin in PBS and the samples were probed with diluted sera from allergic subjects diluted in PBST with 0.1% albumin to contain 10 IU/ml of Ara h 2-sIgE. After overnight incubation at 4° C., slides were washed, incubated with HRP-labeled murine monoclonal anti-human IgE (clone HP6029; Southern Biotech 1:500-1:3,000), washed again and developed with TMB (ThermoFisher Scientific). Background binding of serum without peptide (OD=approximately 0.100) was subtracted. We also examined the background of peptide without serum and this was similar to, or lower than, the background of serum without peptide.
(§3) GraphPad Prism (versions 8.4-9.5 for the Macintosh (GraphPad; La Jolla, CA)) was used to generate graphs and for statistical analysis. The following analyses were performed: 1) for dose response curves, multiple unpaired t test with Welch correction for unequal variances; 2) to combine data from multiple assays, the data were normalized within each assay based on IgE binding to the native sequence (epitope 3) or the original sequence (mimotope A147) and expressed binding as percent of binding and 3) to compare differences in IgE binding for a specific alanine substitution, one way ANOVA followed by Dunnet's multiple comparison test.

Ara h 2-specific IgE [2] = assay: Peptide microarray of serum IgE binding (dose response and alanine scans); set-up: species or system human
From the text: as §1, §2
Each microscope slide contained 21 microarrays and within each microarray, peptides were printed in triplicate. 10-15 spots were not printed with any peptide as control spots. Sera were diluted to contain the same concentrations of Ara h 2-sIgE (usually 10 IU/ml) or at various concentrations for dose response assays and assayed in duplicate arrays on 3-4 separate days as previously described except for use of biotinylated anti-IgE (clone HP6029 from Southern Biotech at 1:1,000). For each microarray assay, the density units of three observations within each microarray were averaged and then the data from duplicate microarrays were averaged. To combine data from multiple independent assays, the signal within each assay was normalized to that of a wild-type peptide and the signal was expressed as a percent of that with the original peptide. Background binding of serum without peptide (300-500 AU) was subtracted. We also examined the background of peptide without serum. Only for the mimotope, this background was higher than the background of serum without peptide and these values (5,000-10,000 AU), which were quite high, were subtracted from the signal of serum with peptide (which bound IgE very strongly (20,000-30,000 AU), instead of subtracting the background of serum without peptide.
Linear sequences of epitope 3 and the mimotope as well as derivative peptides in which each amino acid was sequentially changed to alanine were studied.
as §3

Substance: DEDSYERDPYShSQDP (DEDSYERDPYS[Hyp]SQDP) [Epitope 3-Core]
IgE binding by ELISA, Biotide peptides (Ara h 2-specific IgE [1]): bind IgE almost as well as the 20mer sequence
IgE binding by ELISA, purified peptides (Ara h 2-specific IgE [1]): bound similar amounts of IgE; also recorded: No significant differences were seen; also recorded: strong binding

Substance: LLDPYAhRAWTK (LLDPYA[Hyp]RAWTK) [mimotope with P->h]
IgE binding by ELISA, Biotide peptides (Ara h 2-specific IgE [1]): bound more IgE at all doses than did the original mimotope
IgE binding by ELISA, Biotide peptides (Ara h 2-specific IgE [1]; listed as SEQ ID NO:2): binding was dramatically enhanced
IgE binding by ELISA, purified peptides (Ara h 2-specific IgE [1]): No significant differences were seen
IgE binding by ELISA, purified peptides (Ara h 2-specific IgE [1]; listed as SEQ ID NO:2): bound similar amounts of IgE as did Epitope 3-Core
IgE binding by ELISA, purified peptides (Ara h 2-specific IgE [1]; listed as substituted mimotope): bound amounts of IgE similar to that of the Epitope 3-Core peptide
Microarray signal of serum with peptide (Ara h 2-specific IgE [2]; before background subtraction): 20,000-30,000 AU
IgE binding in microarray format at Ara h 2 sIgE of 0.3 kU/L (Ara h 2-specific IgE [2]; serum pool at 0.3 kU/L Ara h 2 sIgE, p<0.05 (FIG. 7)): bound significantly more IgE than did Epitope 3-Core
IgE binding in microarray format, dose response of serum (Ara h 2-specific IgE [2]; serum pool at various doses, P substituted with h in all peptides (FIG. 7)): tended to bind more IgE at lower doses of serum

Substance: LLDPYAPRAWTK [A147]
IgE binding by ELISA, Biotide peptides (Ara h 2-specific IgE [1]): did not bind IgE well

Now from value to substance, other results behind:

IgE binding by ELISA, purified peptides (Ara h 2-specific IgE [1]): bound similar amounts of IgE
Substance: ERDPYShSQDPYShSPYDRR (ERDPYS[Hyp]SQDPYS[Hyp]SPYDRR) [20mer version of epitope 3]

IgE binding after alanine substitution, density units normalized to WT sequence (Ara h 2-specific IgE [2]; alanine scan of Epitope 3-Core, serum pool at 10 IU/ml Ara h 2-sIgE, percent of WT signal (FIG. 1B)): 9±6%
Substance: Y10: Epitope 3-Core (DEDSYERDPYShSQDP) with amino acid Y10 changed to alanine (DEDSYERDPAS[Hyp]SQDP)
Relevance of the residue for IgE binding, alanine scan of Epitope 3-Core with individual sera (Ara h 2-specific IgE [2]; 7 individual sera (FIG. 2B)): relevant for most sera
